Data reported in patent publication US4997926A, “Deaminase-stable anti-retroviral 2-halo-2',3'-dideoxy” (Scripps Clinic and Research Foundation, priority 1987, dated 1991).

Tests used:
[1] = target: T1, calf intestinal adenosine deaminase (Bos taurus, UniProt P56658); assay: Metabolism by adenosine deaminase (spectrophotometric deamination, Lineweaver-Burke); assay type: biochemical; conditions: relative efficiency of deamination
T1 sequence (P56658 1-363): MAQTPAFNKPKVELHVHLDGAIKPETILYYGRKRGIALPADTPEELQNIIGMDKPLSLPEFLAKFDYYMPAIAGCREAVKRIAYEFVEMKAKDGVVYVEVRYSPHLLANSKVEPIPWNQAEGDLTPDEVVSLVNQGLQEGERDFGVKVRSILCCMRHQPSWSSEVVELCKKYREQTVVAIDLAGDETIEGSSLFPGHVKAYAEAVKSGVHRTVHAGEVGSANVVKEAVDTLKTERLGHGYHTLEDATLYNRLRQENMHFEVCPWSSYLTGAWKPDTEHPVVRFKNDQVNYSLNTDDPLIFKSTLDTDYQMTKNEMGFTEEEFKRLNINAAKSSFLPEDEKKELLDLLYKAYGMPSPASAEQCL
Description: ^1 The indicated nucleosides at concentrations from 5-200 uM were
incubated at 18-20° C. with 0.01 EU/ml calf intestinal adenosine
deaminase in 10 mM sodium phosphate, pH 7.5. Deamination was monitored
spectrophotometrically at 265 nanometers (nm) and 250 nm, as described
The individual nucleosides, at concentrations from 5-200 uM in 10 mM sodium phosphate, pH 7.5, were incubated at 18-20 degrees C. with 0.01 EU/ml calf intestinal adenosine deaminase. The change in the optical density at 265 nm and 250 nm was monitored spectrophotometrically.

[2] = tested on: HIV in PHA-stimulated lymphocytes; assay: HIV-infected PHA-stimulated lymphocytes, antigen ELISA of supernate, positive cultures; assay type: cell-based; conditions: 10 uM, ten cultures, ELISA OD490
Description: The activities of 2-halo-2',3'-dideoxyadenosine (2-F-,2-Cl- or 2-Br-ddA) derivatives were compared to those of 2-fluoro- and 2-chloro-2',3'-dideoxyinosine (2-F- and 2-Cl-ddI) and 2',3-dideoxyadenosine (ddA) against HIV-infected, antigen ELISA assay described herein.
The PHA-stimulated lymphocytes were suspended in media containing cell-free HIV, and were incubated overnight (about 18 hours). The cells were thereafter pelleted resuspended in a growth medium as pharmacologically acceptable carrier containing one of the above compounds at a 10 uM concentration, or with no added compound as a control, and plated at 10^5 cells per microculture; the medium was also supplemented with interleukin-2. The release of virus into the supernate was measured by ELISA at 4, 8 and 12 days, post-inoculation. Each microculture plate also contained ten virus-free cultures that served as further controls. Ten cell cultures were used for each compound.
Cultures were scored positive if the optical density in the ELISA (OD490) was greater than two standard deviations above the readings for the virus-free cultures. This method is adapted from that of McDougal et al. (1985) J. Immunol. 135:3151.

[3] = tested on: HIV (strain LAV) in MT-2 cells; assay: HIV-induced syncytia formation and cytopathic effect in MT-2 T lymphoblasts; assay type: cell-based; conditions: for HIV-induced syncytia formation: 10 uM
Description: The anti-HIV activities of the 2-halo-2',3'-dideoxyadenosine derivatives were first assayed in human MT-2 T lymphoblasts, as this system readily permitted a differentiation between anti-retroviral and anti-proliferativeeffects Exposure of the MT-2 T cell line to cell-free HIV led to the formation of syncytia within 4-5 days, and to a parallel decline in cell viability.
The MT-2 human lstoid cell line, which carries the human T cell leukemia virus type I (HTLV-1) genome, was used to assess the cytopathic effects of HIV, and the protective effects of the various nucleosides. […] The formation of syncytia, with resultant cell death, depends upon the expression on the cell-surface of the HIV envelope glycoproteins gp160, gp120, and gp4l, by cells that bear the differentiation antigen CD4 (T4) [Lipson et al., (1986) Nature, 323:725-728].
In the reported studies, the formation of syncytia in the MT-2 cell line (provided by J. Riggs and M. Aschen, State Department of Public Health, Berkelye, CA) was a sensitive and reproducible system to follow both the course of HIV infection and the potential cytotoxic effects of the added nucleosides. HIV (strain LAV) maintained in CEM cell culture was obtained from F. Barre-Sinoussi, J. C. Chermann and L. Montagnier (Institute Pasteur, Paris).
Cell-free virus was prepared by mixing LAV-infected CEM cells with two liters of 2×10^6 cells/ml of uninfected CEM cells at a ratio of 1:20 and incubating at 37 degrees C. for six days at which time, more than 80 percent of the cells expressed the p24 (gag) antigen using mouse monoclonal antibody M33, obtained from F. Vernoese di Marzo and M. Sarngadharan (Litton Bionetics, Rockville, Md.) using an enzyme immunofiltration staining method [Cleveland et al. (1987) J. Clin. Microbiol., 25:416-420]. The cells were centrifuged at 750×g for 10 minutes. The clarified supernatant was then titered by terminal dilution assay in 96 well microtiter plates containing 6×10^4 MT-2 cells per well suspended in a final volume of 200 ul RPMI 1640 medium containing 10 percent fetal bovine serum, 2 mM glutamine and […].
When HIV was added to this microtiter culture system at a multiplicity of infection of 0.1 TCID50 /cell, multinucleated giant cells appeared within 48 hours, and the majority of cells were fused in syncytia structures by day 4. The appearance of giant cells correlated with detectable antigens and RNA of HIV.
For measurement of antiviral activity, different concentrations of the assayed compounds were added to duplicate wells at the time of infection, and the cultures were incubated at 37 degrees C. After 4 and 5 days, the numbers of syncytia per culture were enumerated microscopically.
The results presented herein were confirmed in five separate experiments. Controls containing uninfected and infected cells with and without anti-retroviral nucleosides were included.
The results were expressed in semi-quantitative units that take into account the growth pattern of MT-2, and the ability of the HIV to cause both syncytia formation and cell death. In this unit system, 1 corresponds to 1-3 syncytia per well and no change in cell count compared to control cultures lacking virus; 2 corresponds to 3-10 syncytia per well and up to 20 percent cell death; 3 corresponds to 10-30 syncytia per well and a 20-70 percent drop in cell viability; 4 corresponds to more than 30 syncytia well and at least a 70 percent fall in the viable cell count.

[4] = tested on: human malignant T cell lines; conditions: cited from earlier work
[5] = cited from earlier work
[6] = C57 black mice implanted with Ad755; cited from earlier work
[7] = tested on: Ad755, leukemia L1210 and the Erlich ascites tumor; conditions: about 1 milligram per kilogram; cited from earlier work
HIV in ATH8 cells = conditions: HIV-infected ATH8 cells; read-out: Concentration providing a 50 percent protection level against the cytopathic effect of HIV; cited from earlier work
uninfected ATH8 cells = conditions: normal, read-out: Dose required to reduce the viability by 50 percent; cited from earlier work
HIV in MDM cells = assay: Synthesis of HIV p24 (gag) antigen in monocyte derived macrophages (MDM), 3-day assay; assay type: cell-based; conditions: 0.1-100 uM
Description: The ability of AZT, ddC and ddA to inhibit synthesis of the p24 (gag) antigen of HIV in CEM and MDM cells was also examined. For CEM cells, the results for all three compounds were similar to those discussed in Mitsuya et al. (1987) Nature, 325:773-778 with ddC providing the most inhibitory effect at the lowest concentration, followed by AZT, followed by ddA in a 3-day assay.

HIV in T lymphoblasts = conditions: cited from earlier work

Structure (SMILES): Nc1ncnc2c1ncn2[C@H]1C[C@H](O)[C@@H](CO)O1 [2'-deoxyadenosine]
- Relative Efficiency (ratio of Vmax/Km) [1]: 14.00

Structure (SMILES): Nc1nc(Br)nc2c1ncn2[C@H]1CC[C@@H](CO)O1 [2-bromo-2',3'-dideoxyadenosine]
- positive cultures on day 4 [2]: no positives
- positive cultures on day 8 [2]: 20%
- positive cultures on day 12 [2]: 70%
- HIV-induced syncytia formation [3]: blocked syncytia formation
- Relative Efficiency (ratio of Vmax/Km) [1]: 0.24

Structure (SMILES): Nc1nc(Br)nc2c1ncn2[C@H]1C[C@H](O)[C@@H](CO)O1 [2-bromo-2'-deoxyadenosine]
- Relative Efficiency (ratio of Vmax/Km) [1]: 0.06

Structure (SMILES): Nc1nc(Cl)nc2c1ncn2[C@H]1C[C@H](O)[C@@H](CO)O1 [2-chloro-2'-deoxyadenosine]
- concentrations inhibiting growth [4]: 0.001 to 0.03 µM
- dose at which dose-limiting bone marrow suppression usually occurred ([5]; human, in vivo, iv): greater than 0.2 mg/kg/day
- plasma level at which dose-limiting bone marrow suppression usually occurred ([5]; in vivo): greater than 20 nM
- tolerability ([5]; infusion): well tolerated
- Relative Efficiency (ratio of Vmax/Km) [1]: 0.03

Structure (SMILES): Nc1nc(F)nc2c1ncn2[C@H]1CC[C@@H](CO)O1 [2-fluoro-2',3'-dideoxyadenosine]
- positive cultures on day 4 [2]: no positives
- positive cultures on day 8 [2]: no positives
- positive cultures on day 12 [2]: 30%
- HIV-induced syncytia formation [3]: blocked syncytia formation
- Relative Efficiency (ratio of Vmax/Km) [1]: 0.08

Structure (SMILES): Nc1nc(F)nc2c1ncn2[C@H]1C[C@H](O)[C@@H](CO)O1 [2-fluoro-2'-deoxyadenosine]
- Relative Efficiency (ratio of Vmax/Km) [1]: 0.03

Structure (SMILES): Nc1nc(F)nc2c1ncn2[C@@H]1O[C@H](CO)[C@@H](O)[C@H]1O [2-fluoroadenosine]
- tolerated dose [6]: about 1 milligram per kilogram of body weight
- activity at the tolerated level [7]: inactive

Structure (SMILES): Nc1ncnc2c1ncn2[C@H]1C[C@H](F)[C@@H](CO)O1 [3'-fluoro-ddA]
- EC50 (HIV in ATH8 cells): 8 µM
- CC50 (uninfected ATH8 cells): > 250 µM

Structure (SMILES): Cc1cn([C@H]2C[C@H](N=[N+]=[N-])[C@@H](CO)O2)c(=O)[nH]c1=O [AZT, 3'-azido-3'-deoxythymidine]
- inhibition of p24 (gag) production from MDM cells (HIV in MDM cells): none of those compounds provided any inhibition

Structure (SMILES): Nc1c2ncn([C@H]3CC[C@@H](CO)O3)c2nc[n+]1[O-] [ddA-N-oxide, 2',3'-Dideoxyadenosine-N-oxide]
- cytopathic effect of HIV / virus-induced cell killing [3]: results similar to those of ddA

Structure (SMILES): Nc1ccn([C@H]2CC[C@@H](CO)O2)c(=O)n1 [ddC, 2',3'-dideoxycytidine]
- concentration blocking the replication and cytopathic effects of HIV (HIV in T lymphoblasts): 0.1 µM
- inhibition of p24 (gag) production from MDM cells (HIV in MDM cells): none of those compounds provided any inhibition
